What was measured:
[1] = biological target: T1, aryl hydrocarbon receptor (AHR) (Homo sapiens, UniProt P35869); experiment: DRE-Luciferase reporter high-throughput screen (AHR antagonist, VAF347-activated)
T1 sequence (P35869 11-848): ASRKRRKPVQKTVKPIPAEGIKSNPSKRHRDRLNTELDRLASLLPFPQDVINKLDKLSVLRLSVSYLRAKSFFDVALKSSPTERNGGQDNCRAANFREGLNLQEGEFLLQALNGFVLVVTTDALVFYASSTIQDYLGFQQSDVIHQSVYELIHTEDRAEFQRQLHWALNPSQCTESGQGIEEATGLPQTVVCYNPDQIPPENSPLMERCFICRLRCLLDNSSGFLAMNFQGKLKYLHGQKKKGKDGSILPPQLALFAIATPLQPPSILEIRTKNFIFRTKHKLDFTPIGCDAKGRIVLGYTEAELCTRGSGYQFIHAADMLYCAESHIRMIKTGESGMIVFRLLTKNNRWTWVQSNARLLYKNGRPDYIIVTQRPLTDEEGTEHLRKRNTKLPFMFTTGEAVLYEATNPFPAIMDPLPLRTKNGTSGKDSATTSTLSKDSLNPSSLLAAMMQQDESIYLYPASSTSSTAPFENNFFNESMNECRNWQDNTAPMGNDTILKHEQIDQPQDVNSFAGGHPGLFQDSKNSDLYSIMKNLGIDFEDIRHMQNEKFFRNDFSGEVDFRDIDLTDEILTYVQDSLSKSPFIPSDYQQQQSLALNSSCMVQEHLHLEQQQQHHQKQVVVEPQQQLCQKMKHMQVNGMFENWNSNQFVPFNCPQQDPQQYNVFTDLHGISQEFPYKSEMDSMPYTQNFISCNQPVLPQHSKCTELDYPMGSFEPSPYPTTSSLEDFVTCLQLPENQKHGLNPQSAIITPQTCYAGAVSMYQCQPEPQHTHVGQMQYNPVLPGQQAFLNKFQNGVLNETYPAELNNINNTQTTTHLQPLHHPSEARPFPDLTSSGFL

[2] = test system: mobilized peripheral blood CD34+ cells; experiment: CD34+ expansion assay; type: cell-based; settings: Homo sapiens; read-out: CD34 Frequency EC50
Method: Approximately 3,000 mobilized peripheral blood CD34+ cells were plated per well in 384-well plate at a final volume of 45 μL in HSC growth media (SFEM supplemented with Pen/Strep, 50 ng/mL FLT3L, TPO, SCF and IL-6). Serial dilutions were made in HSC growth media with a top final concentration of 10 μM. 5 μL 10× stock was added to each well. The plate was gently tapped on all sides and incubated for 7 days at 37° C./5% CO2. On day 7, the media was aspirated on a Biotek plate washer and 30 μL staining solution was added to the cells with antibodies against CD34-PE, CD90-APC, CD45RA-PE-CF594 in PBS. Cells were washed once in PBS and resuspended in 80 μL for final volume. 40 μL was acquired by flow cytometry (BD Celesta).

Compound | IC50 [1] | EC50 [2]
O=C(Nc1ccc(N2CCCC2)nc1)c1cc2c(F)cccc2s1 [compound 46] | 200 to 500 nM | 500 to 1000 nM
Cn1nc(C(C)(C)C)cc1-c1nn2c(-c3cccs3)nnc2s1 [compound 73] | 500 to 1000 nM | 1000 to 5000 nM
Cc1cc(C(=O)NNC(=O)c2cnn(-c3ccccc3C)c2C(F)(F)F)c(C)o1 [compound 139] | 500 to 1000 nM | ≥ 5000 nM
Cc1c(Cl)c(=O)oc2cc(OCc3ccc(Cl)cc3)ccc12 [compound 137] | 500 to 1000 nM | ≥ 5000 nM
Cc1cnn(-c2nc(-c3ccc(F)cc3)cc(C(F)(F)F)n2)c1 [compound 83] | < 200 nM | < 500 nM
OCCCc1nc2n(n1)C(c1cccc(Br)c1)C=C(c1ccc(Cl)cc1)N2 (centres unmarked) [compound 109] | 200 to 500 nM | 500 to 1000 nM
COC(=O)c1sc(NC(=O)c2cc(C)n(C)n2)cc1C [compound 41] | < 200 nM | ≥ 5000 nM
COc1cccc(NC(=O)c2cc3c(=O)n4ccccc4nc3n2C)c1 [compound 18] | 200 to 500 nM | < 500 nM
COc1cc([N+](=O)[O-])ccc1NC(=O)Nc1nc2c(s1)CCCC2 [compound 121] | 500 to 1000 nM | 1000 to 5000 nM
COc1c(C)cccc1C(=O)Nc1cc(-c2ccc(F)cc2)nn1C [compound 11] | 500 to 1000 nM | 1000 to 5000 nM
Cc1ccc(Cl)cc1-n1ccc2nc(N3CCCCC3)ncc2c1=O [compound 134] | 500 to 1000 nM | 1000 to 5000 nM
Cc1ccc(N/N=C/c2ccc(-n3ccnc3)cc2)cc1Cl [compound 98] | 500 to 1000 nM | 1000 to 5000 nM
FC(F)(F)c1ccnc(N/N=C/c2ccc(Cl)cc2Cl)n1 [compound 114] | 500 to 1000 nM | 1000 to 5000 nM
Cc1ccc2nc3sc(C(=O)Nc4cccc(C(F)(F)F)c4)cc3c(=O)n2c1 [compound 15] | < 200 nM | < 500 nM
CCCCOc1ccc(C(=O)Nc2cccc(C(=O)OCC(C)C)c2)cc1 [compound 9] | 500 to 1000 nM | ≥ 5000 nM
N#Cc1ccc(C(=O)Nc2cc(C(F)(F)F)ccc2Cl)c(F)c1 [compound 2] | 200 to 500 nM | 500 to 1000 nM
CC(C)(C)c1ccc(O)c(NC(=O)c2cnc3ccccn3c2=O)c1 [compound 27] | 500 to 1000 nM | 1000 to 5000 nM
O=c1[nH]c(NC2CCCC2)nc2nccc(-c3cccs3)c12 [compound 129] | 200 to 500 nM | 1000 to 5000 nM
Cc1noc(C)c1C(=O)Nc1ccc2oc(-c3cc(F)ccc3Br)nc2c1 [compound 45] | < 200 nM | 500 to 1000 nM
Cn1cnnc1Sc1ccc(NC(=O)c2cc(Br)ccc2F)cc1 [compound 7] | 500 to 1000 nM | 1000 to 5000 nM
O=C(N/N=C\c1ccccc1C(F)(F)F)c1n[nH]c2c1CCc1ccccc1-2 [compound 99] | 500 to 1000 nM | 1000 to 5000 nM
CCCSc1nc(N)c(C(=O)Nc2ccccc2)cc1C#N [compound 16] | 200 to 500 nM | < 500 nM
CCCc1cc(C(N)=O)c(NC(=O)COc2ccccc2C)s1 [compound 119] | 200 to 500 nM | < 500 nM
CCC(=O)Nc1ccc(N2Cc3ccccc3C2=O)cc1 [compound 135] | 500 to 1000 nM | 1000 to 5000 nM
Cc1ccc2cc(C(=O)N3CCN(S(=O)(=O)c4cccs4)CC3)[nH]c2c1 [compound 78] | 500 to 1000 nM | ≥ 5000 nM

Continued, values first:

IC50 [1] | EC50 [2] | Compound
200 to 500 nM | 500 to 1000 nM | O=C(Nc1ccccc1Cl)c1cnc(-c2noc3ccccc23)s1 [compound 23]
500 to 1000 nM | 1000 to 5000 nM | COc1ccccc1C(=O)Nc1cccc(-c2cn3ccsc3n2)c1 [compound 6]
< 200 nM | 500 to 1000 nM | Fc1ccc(-c2cc(-c3ccccc3)nc(-n3cccn3)n2)cc1 [compound 82]
500 to 1000 nM | < 500 nM | CSc1ccccc1C(=O)Nc1ccc2[nH]c(-c3ccc(F)cc3)nc2c1 [compound 13]
500 to 1000 nM | 1000 to 5000 nM | Cc1ccc(Nc2ccc(NC(=O)c3ccc(-c4ccccc4)cc3)cc2)nn1 [compound 5]
500 to 1000 nM | 1000 to 5000 nM | Cc1cccc(-c2nc(-c3c[nH]c(C(=O)N4CCCC4)c3)cs2)c1 [compound 126]
500 to 1000 nM | 500 to 1000 nM | Cc1ccc2nc(-c3ccc(-c4ccccn4)s3)cn2c1 [compound 101]
500 to 1000 nM | 1000 to 5000 nM | Cc1ccn2c(-c3csc(Nc4ccccn4)n3)c(C)nc2c1 [compound 60]
200 to 500 nM | 1000 to 5000 nM | Cc1nc(-c2ccccc2)sc1C(=O)N/N=C/c1cc2ccccc2o1 [compound 115]
500 to 1000 nM | < 500 nM | COc1ccc(Nc2nc(-c3ccccn3)cs2)cc1 [compound 59]
200 to 500 nM | 500 to 1000 nM | c1ccc(-c2nnc(-c3csc(-c4cccnc4)n3)o2)cc1 [compound 57]
500 to 1000 nM | 500 to 1000 nM | O=C(Nc1ccc2ccccc2n1)c1ccccc1Cl [compound 12]
500 to 1000 nM | 500 to 1000 nM | Cc1cc(-c2nnc3sc(-c4ccc(F)cc4)nn23)[nH]n1 [compound 71]
500 to 1000 nM | ≥ 5000 nM | Nc1cc(-c2ccc3c(c2)CCCC3)nn1-c1ccccc1 [compound 92]
< 200 nM | < 500 nM | Cc1ccc2nc(-c3ccc(Cl)cc3)cc(C(N)=O)c2c1 [compound 116]
